Assay results published in US20260219274A1, “POLYOL SWEETNERS AND CARDIOVASCULAR AND THROMBOTIC EVENT RISK” (THE CLEVELAND CLINIC FOUNDATION, priority 2023, published 2026).

Tests used:
[1] = Erythritol intervention study (COSETTE): postprandial plasma erythritol levels; format: in vivo, human; conditions: for hours after ingestion of 30 g
Method: In a fourth study, the first phase of the Erythritol Intervention Study (COSETTE, clinicaltrials.gov number: NCT04731363), prospectively recruited healthy volunteers ingested a standard-size artificially sweetened beverage (300 mL) containing 30 g of erythritol with instructions to consume the drink within 2 minutes, and blood samples were collected at scheduled post-prandial time points for crythritol measurement. For each participant in the erythritol intervention study (n=8), baseline blood samples were first obtained after overnight (≥8 hours) fasting. […] Therefore, participants were given 30 g erythritol dissolved in 300 mL water. Serial venous blood sampling was performed up to 7d after baseline. […]
Stable-isotope-dilution LC/MS/MS was used for quantification of erythritol, threitol, and 1,5-AHG in human and mouse plasma. […] Limit of detection (LOD) and limit of quantification (LOQ) were as follow: threitol:0.048 and 0.160 μM; erythritol: 0.026 and 0.089 μM; 1,5-AHG: […]; respectively. Three quality control samples were run with each batch of samples and inter-batch variations expressed as coefficient of variation (CV) were less than 7% for all analytes monitored. Data were collected and analyzed by LabSolution 5.91 software (Shimadzu).

[2] = test system: PRP from healthy volunteers; assay: Xylitol dietary challenge: platelet aggregometry before and 30 min after ingestion; format: in vivo, human
Method: The second part of xylitol ingestion studies focused on platelet phenotypic changes after oral xylitol challenge. In these parallel studies, platelet-rich plasma (PRP) was isolated immediately after the blood draw (from the same subjects that were used for xylitol pharmacokinetics studies) and aggregometry assays performed (as described below) on blood samples collected at baseline and 30 min (when postprandial peak levels were observed) after xylitol exposure.
A non-randomized study design was used wherein each subject served as their own control, comparing both xylitol levels and indices of platelet function within subjects at baseline versus 30 min following ingestion of the standardized drink of xylitol. […]
Platelet rich plasma (PRP) was isolated as previously described.^5 Whole blood was drawn from healthy donors and anticoagulated with sodium citrate (0.109 M). […] Next, platelets were counted with a hemocytometer and the platelet concentration adjusted to 2×10^8/mL using PPP. […] When used, pairs of vehicle vs. xylitol incubated PRP were always incubated and analyzed together (beginning, middle, end of platelet prep use) and after 120 minutes post isolation, PRPs were not used anymore.

SMILES | elevation of plasma erythritol over baseline [1] | aggregation responses to ADP or TRAP6 after ingestion ([2]; 30 min after 30 g xylitol vs baseline) | platelet responsiveness of individual subjects ([2]; submaximal ADP and TRAP6, after xylitol ingestion, every subject)
OC[C@@H](O)[C@@H](O)CO [erythritol] | 1000 fold | – | –
OC[C@@H](O)[C@H](O)[C@@H](O)CO [xylitol] | – | substantial (multiple-fold) increase | significant increase
